For 20 compounds, IC50 results are on record in patent US9850206B2, “S1P and/or ATX modulating agents” (BIOGEN MA INC., priority 2012, dated 2017).

Where two headings read alike, the source gives them in different places.

One assay has as its target S1P1 (Homo sapiens, UniProt P21453). The assay can be described thus: S1P receptor activity assay (calcium flux, FLIPR TETRA), S1P1. The class given is cell-based. The text has this:
(§1) Agonist percentage activation determinations were obtained by assaying sample compounds and referencing the Emax control for each receptor profiled. Antagonist percentage inhibition determinations were obtained by assaying sample compounds and referencing the control EC80 wells for each receptor profiled. The samples were run using a “Single Addition” assay protocol for the agonist and antagonist assay run. The protocol design was as follows:
(§2) Master stock solution: Unless specified otherwise, all sample compounds were diluted in 100% anhydrous DMSO including all serial dilutions. All control wells contained identical solvent final concentrations as did the sample compound wells.
(§3) Compound plate for assay: The sample compounds were transferred from a master stock solution into a daughter plate that was used in the assay. Each sample compound was diluted into assay buffer (1×HBSS with 20 mM HEPES and 2.5 mM Probenecid) at an appropriate concentration to obtain final concentrations.
(§4) Sample compounds were plated in an eight-point, four-fold dilution series in duplicate with a top concentration of 10 μM. The concentrations described here reflect the final concentration of the compounds during the antagonist assay.
(§5) Reference agonists were handled as mentioned above serving as assay control. The reference agonists were handled as described above for Emax.
(§6) Assay was read for 180 seconds using the […] (This assay run added sample compounds and reference agonist to respective wells). At the completion of the first “Single Addition” assay run, assay plate was removed from the […] and placed at 25° C. for seven (7) minutes.
(§7) Using the EC80 values determined during the agonist assay, stimulated all pre-incubated sample compound and reference antagonist (if applicable) wells with EC80 of reference agonist. Read for 180 seconds using the […] (This assay added reference agonist to respective wells—then fluorescence measurements were collected to calculate percentage inhibition values).
(§8) All plates were subjected to appropriate baseline corrections. Once baseline corrections were processed, maximum fluorescence values were exported and data manipulated to calculate percentage activation, percentage inhibition and Z′.
Background: Calcium assays in cells follow changes in intracellular calcium, usually with a dye or a luminescent sensor.

Another assay has as its target T1, S1P4 (Homo sapiens, UniProt O95977).
T1 sequence (O95977 1-384): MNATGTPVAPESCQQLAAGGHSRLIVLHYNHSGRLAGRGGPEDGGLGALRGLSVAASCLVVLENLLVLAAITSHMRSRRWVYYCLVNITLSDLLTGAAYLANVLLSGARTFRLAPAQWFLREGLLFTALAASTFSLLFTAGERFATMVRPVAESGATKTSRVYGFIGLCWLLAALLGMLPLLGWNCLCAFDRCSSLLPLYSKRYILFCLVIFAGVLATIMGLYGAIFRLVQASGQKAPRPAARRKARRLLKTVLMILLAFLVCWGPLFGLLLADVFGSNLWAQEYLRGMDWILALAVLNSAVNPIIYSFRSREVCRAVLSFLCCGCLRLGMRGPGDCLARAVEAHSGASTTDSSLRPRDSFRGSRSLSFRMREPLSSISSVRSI
The assay can be described thus: S1P receptor activity assay (calcium flux, FLIPR TETRA), S1P4. The class given is cell-based.
Excerpt: as §1, §2, §3, §4, §5, §6, §7, §8

Another assay deals with T2, Human ATX protein (Homo sapiens, UniProt Q13822).
T2 construct: made in house
The assay can be described thus: Autotaxin (ATX) FRET assay with FS-3 substrate. The class given is biochemical. The text has this: ATX (Autotaxin) is a 125 KDa glycoprotein with lysophospholipase D (LPLD) activity that generates the bioactive lipid lysophosphatidic acid (LPA) from lysophosphatidylcholine (LPC). The ATX biochemical assay utilizes a FRET (fluorescence resonance energy transfer) technology platform. […] ATX catalyzes the hydrolysis of the substrate which separates the dabsyl quencher from the fluorescein reporter, which becomes fluorescent. The reaction is monitored by a SpectraMax M5 (Molecular Devices, Sunnyvale, Calif.) with at excitation wavelength 485 nm and emission wavelength 535 nm.
Fatty acid free-BSA (Sigma A8806): 10 mg/mL in H2O, stored at 4° C.
2×ATX assay buffer: 100 mM Tris, 280 mM NaCl, 10 mM KCl, 2 mM CaCl2, 2 mM MgCl2, pH 7.4.
Human ATX protein: expressed and purified in house. Stored at −80° C.
Substrate FS-3 (Echelon, L-2000): 100 μg in 77.74 μL H2O (1 mM stock), stored at −20° C.
Compound dilution—All compounds were provided at 10 mM in 100% DMSO. In the first well, 2 μL of 10 mM compound was added to 78 μL of DMSO (1:40 dilution). In subsequent wells 3-fold dilution (total 10 dilutions) were performed.
1×ATX assay buffer was made up with a final concentration of 1 mg/mL fatty acid free-BSA using 2×ATX assay buffer, 10 mg/ml fatty acid free-BSA and ddH2O.
38 μL was added per well to the assay plate. The final concentration of ATX in the reaction as 1.0 μg/mL.
2 μL per well of compounds was transferred to provide the desired concentration. The plate was centrifuged, then incubated at room temperature for 30 minutes on the shaker.
FS-3 was diluted with 1×ATX assay buffer to a concentration of FS-3 of 10 μM (5×). Then, 10 μL was added per well to the assay plate. The final concentration of FS-3 in the reaction was 2 μM. The plate was centrifuged. The plate was kept shaking at room temperature for 2 hours. Because FS-3 substrate is light sensitive, plates were kept covered and protected from light.

A further assay has as its target S1P5 (Homo sapiens, UniProt Q9H228). Kind of assay: S1P receptor activity assay (calcium flux, FLIPR TETRA), S1P5. The class given is cell-based.
Excerpt: as §1, §2, §3, §4, §5, §6, §7, §8

Setting [1] is: calcium flux, top concentration 10 μM, the >5 μM sentence says only 'for S1P1', read-out: IC50 for S1P1 agonist activity.
The mark [2] stands for this setting: calcium flux, top concentration 10 μM, the >5 μM sentence says only 'for S1P4', read-out: IC50 for S1P4 agonist activity.
[3] abbreviates: FS-3 2 μM, ATX 1.0 μg/mL, 2 hours at room temperature, read-out: IC50 (ATX).
Setting [4] is: calcium flux, top concentration 10 μM, read-out: IC50 for S1P5.

By IC50 is commonly meant the midpoint of a concentration-inhibition curve.

S1P5, sequence (Q9H228 whole entry): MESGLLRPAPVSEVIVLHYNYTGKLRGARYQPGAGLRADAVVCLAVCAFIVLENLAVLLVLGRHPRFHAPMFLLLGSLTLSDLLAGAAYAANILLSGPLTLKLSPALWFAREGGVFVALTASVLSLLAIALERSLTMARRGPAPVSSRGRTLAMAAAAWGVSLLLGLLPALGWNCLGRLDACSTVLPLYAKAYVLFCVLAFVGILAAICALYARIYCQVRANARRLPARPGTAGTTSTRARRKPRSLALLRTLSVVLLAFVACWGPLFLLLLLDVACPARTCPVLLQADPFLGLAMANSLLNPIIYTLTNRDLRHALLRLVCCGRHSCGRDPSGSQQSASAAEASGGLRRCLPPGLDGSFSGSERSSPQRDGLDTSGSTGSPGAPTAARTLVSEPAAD
S1P1, sequence (P21453 whole entry): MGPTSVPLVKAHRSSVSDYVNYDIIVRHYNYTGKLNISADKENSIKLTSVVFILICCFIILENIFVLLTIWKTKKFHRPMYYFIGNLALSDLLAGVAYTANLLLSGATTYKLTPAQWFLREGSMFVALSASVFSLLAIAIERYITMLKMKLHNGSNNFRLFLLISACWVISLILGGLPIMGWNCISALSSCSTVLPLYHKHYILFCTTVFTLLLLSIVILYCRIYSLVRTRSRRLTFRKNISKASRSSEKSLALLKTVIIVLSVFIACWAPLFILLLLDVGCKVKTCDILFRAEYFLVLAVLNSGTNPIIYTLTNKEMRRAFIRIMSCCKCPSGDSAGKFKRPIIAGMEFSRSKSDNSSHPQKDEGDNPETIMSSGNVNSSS

For the compound `CC(C)(C)[C@H]1CC[C@H](Oc2ccc(NC3CCCN(CCC(=O)O)C3)nc2)CC1` (relative stereo) [Example 12, 3-(3-(5-(trans-4-tert-butylcyclohexyloxy)pyridin-2-ylamino)piperidin-1-yl)propanoic acid], the IC50 on S1P1 (setting [1]) is more than 5 µM; at S1P4 (setting [2]), not above 2000 nM; at Human ATX protein (setting [3]), more than 10 µM.
Taken in the same sequence, the figures for `CC(C)(C)[C@H]1CC[C@H](Oc2ccc(NC3CCCN(CCC(=O)O)C3)cc2)CC1` (relative stereo) [Example 13, 3-(3-((4-((trans-4-(tert-Butyl)cyclohexyl)oxy)phenyl)amino)piperidin-1-yl)propanoic acid] were more than 5 µM, 2000 to 5000 nM and more than 10 µM.
Turning to `CC(C)(C)[C@H]1CC[C@@H](Oc2ccc(C3CCCN(CCCC(=O)O)C3)cc2)CC1` (stereo in doubt) [Example 4, 4-(3-(4-(cis-4-tert-Butylcyclohexyloxy)phenyl)piperidin-1-yl)butanoic acid], the 50% inhibitory concentration (IC50) is more than 5 µM at S1P5 (setting [4]), more than 5 µM at S1P1 (setting [1]), more than 5000 nM on S1P4 (setting [2]) and 5 to 10 µM on Human ATX protein (setting [3]).
`CCCCCCCCOc1ccc(C2CCCN(CCC(=O)O)C2)cc1` (stereo not drawn) [Example 1, 3-(3-(4-(Octyloxy)phenyl)piperidin-1-yl)propanoic acid]: the IC50 at S1P5 (setting [4]) is more than 5 µM; on S1P1 (setting [1]) it was more than 5 µM; on S1P4 (setting [2]), more than 5000 nM.
Turning to `CCCCCCCCOc1ccc(C2CCCN(CCCC(=O)O)C2)cc1` (stereo not drawn) [Example 2, 4-(3-(4-(Octyloxy)phenyl)piperidin-1-yl)butanoic acid], the results for the IC50 on S1P5 (setting [4]), on S1P1 (setting [1]) and at S1P4 (setting [2]) were more than 5 µM, more than 5 µM and not above 2000 nM, respectively.
Turning to `CC(C)(C)[C@H]1CC[C@H](Oc2ccc(C3CCCN(CCC(=O)O)C3)cc2)CC1` (stereo partly drawn) [Example 3, 3-(3-(4-(trans-4-tert-Butylcyclohexyloxy)phenyl)piperidin-1-yl)propanoic acid], the half-maximal inhibitory concentration (IC50) at Human ATX protein (setting [3]) is 5 to 10 µM.
`CCCCCCCCOc1cccc(C2CCCN(CCC(=O)O)C2)c1` (stereo not drawn) [Example 5, 3-(3-(3-(Octyloxy)phenyl)piperidin-1-yl)propanoic acid]: the IC50 was more than 5 µM at S1P5 (setting [4]), more than 5 µM on S1P1 (setting [1]), not above 2000 nM at S1P4 (setting [2]) and 5 to 10 µM on Human ATX protein (setting [3]).
Turning to `CCCCCCCCOc1cccc(C2CCCN(CCCC(=O)O)C2)c1` (stereo not drawn) [Example 6, 4-(3-(3-(Octyloxy)phenyl)piperidin-1-yl)butanoic acid], the IC50 is more than 5 µM on S1P5 (setting [4]), more than 5 µM at S1P1 (setting [1]), not above 2000 nM at S1P4 (setting [2]) and 5 to 10 µM at Human ATX protein (setting [3]).
Turning to `CC(C)(C)[C@H]1CC[C@H](Oc2cccc(C3CCCN(CCC(=O)O)C3)c2)CC1` (stereo partly drawn) [Example 7, 3-(3-(3-((trans-4-(tert-Butyl)cyclohexyl)oxy)phenyl)piperidin-1-yl)propanoic acid], the concentration for half-maximal inhibition (IC50) at S1P5 (setting [4]) was more than 5 µM; at S1P4 (setting [2]) it was not above 2000 nM; on Human ATX protein (setting [3]), 5 to 10 µM.
On the same counts, the results for `CC(C)(C)[C@H]1CC[C@H](Oc2cccc(C3CCCN(CCCC(=O)O)C3)c2)CC1` (stereo partly drawn) [Example 8, 4-(3-(3-((trans-4-(tert-Butyl)cyclohexyl)oxy)phenyl)piperidin-1-yl)butanoic acid] are more than 5 µM, not above 2000 nM and 5 to 10 µM.
On to `CCCCCCCCOc1ccc(C2CCCC(N3CCC(C(=O)O)CC3)C2)cc1` (stereo not drawn) [Example 9, 1-(3-(4-(octyloxy)phenyl)cyclohexyl)piperidine-4-carboxylic acid], for which the concentration for half-maximal inhibition (IC50) was more than 5 µM on S1P5 (setting [4]), more than 5 µM at S1P1 (setting [1]), more than 5000 nM on S1P4 (setting [2]) and more than 10 µM at Human ATX protein (setting [3]).
Turning to `CC(C)(C)[C@H]1CC[C@H](Oc2ccc(C3CCCC(N4CCC(C(=O)O)CC4)C3)cc2)CC1` (stereo partly drawn) [Example 10, 1-(3-(4-(trans-4-tert-butylcyclohexyloxy)phenyl)cyclohexyl)piperidine-4-carboxylic acid], the IC50 at S1P5 (setting [4]) was more than 5 µM; on S1P1 (setting [1]) it was more than 5 µM; at S1P4 (setting [2]) it was more than 5000 nM; on Human ATX protein (setting [3]), more than 10 µM.
Take `CCCCCCCCOc1ccc(NC2CCCN(CCC(=O)O)C2)nc1` (stereo not drawn) [Example 11, 3-(3-(5-(Octyloxy)pyridin-2-ylamino)piperidin-1-yl)propanoic acid]: the IC50 is more than 5 µM on S1P1 (setting [1]), more than 5000 nM at S1P4 (setting [2]) and 5 to 10 µM on Human ATX protein (setting [3]).
In the case of `CCCCCCCCOc1ccc(N2CCN(CCCC(=O)O)CC2)cc1` [Example 15, 4-(4-(4-(Octyloxy)phenyl)piperazin-1-yl)butanoic acid], the IC50 is more than 5 µM at S1P5, more than 5 µM at S1P1, not above 2000 nM on S1P4 and more than 10 µM against Human ATX protein.
Consider `CCCCCCCCOc1ccc(N2CCN(CCC(=O)O)CC2)nc1` [Example 22, 3-(4-(5-(Octyloxy)pyridin-2-yl)piperazin-1-yl)propanoic acid], for which the IC50 on S1P5 (setting [4]) is more than 5 µM; on S1P1 (setting [1]), more than 5 µM; on S1P4 (setting [2]), more than 5000 nM.
With `CC(C)(C)[C@H]1CC[C@H](Oc2ccc(C3CCN(CCC(=O)O)C3)cc2)CC1` (stereo partly drawn) [Example 23, 3-(3-(4-((trans-4-(tert-Butyl)cyclohexyl)oxy)phenyl)pyrrolidin-1-yl)propanoic acid], the figures for the concentration for half-maximal inhibition (IC50) at S1P5 (setting [4]), at S1P1 (setting [1]) and on S1P4 (setting [2]) were more than 5 µM, more than 5 µM and not above 2000 nM, respectively.
For the compound `CC(C)(C)[C@H]1CC[C@H](Oc2ccc(C3CCN(CCCC(=O)O)C3)cc2)CC1` (stereo partly drawn) [Example 24, 4-(3-(4-((trans-4-(tert-Butyl)cyclohexyl)oxy)phenyl)pyrrolidin-1-yl)butanoic acid], the IC50 at S1P5 (setting [4]) is more than 5 µM; at S1P1 (setting [1]) it was more than 5 µM; at S1P4 (setting [2]), not above 2000 nM.
Regarding `CC(C)(C)[C@H]1CC[C@H](Oc2ccc(C3CCCN(C4CCC(C(=O)O)CC4)C3)cc2)CC1` (stereo partly drawn) [Example 25, 4-(3-(4-((trans-4-(tert-Butyl)cyclohexyl)oxy)phenyl)piperidin-1-yl)cyclohexanecarboxylic acid], the IC50 on S1P1 (setting [1]) is more than 5 µM; at S1P4 (setting [2]) it was not above 2000 nM.
Regarding `CC(C)(C)[C@H]1CC[C@H](Oc2ccc(C3=CCN(CCCCC(=O)O)CC3)cc2)CC1` [Example 49, 5-(4-(4-((trans-4-(tert-Butyl)cyclohexyl)oxy)phenyl)-5,6-dihydropyridin-1(2H)-yl)pentanoic acid], the concentration for half-maximal inhibition (IC50) on S1P5 (setting [4]) is more than 5 µM; at S1P1 it was more than 5 µM; on S1P4 it was not above 2000 nM.
For the compound `CC(C)(C)[C@H]1CC[C@H](Oc2ccc(C3CCN(CCCCC(=O)O)CC3)cc2)CC1` [Example 50, 5-(4-(4-((trans-4-(tert-Butyl)cyclohexyl)oxy)phenyl)piperidin-1-yl)pentanoic acid], the IC50 is more than 5 µM at S1P5 (setting [4]), more than 5 µM on S1P1 (setting [1]) and not above 5000 nM at S1P4 (setting [2]).
